Compound | melting point
O=C1CC(c2cccc(-c3ccccn3)c2)=Nc2ccc(C(F)(F)F)cc2N1 [Example 33, 4-(3-Pyridin-2-yl-phenyl)-8-trifluoromethyl-1,3-dihydro-benzo[b][1,4]diazepin-2-one] | 226 to 227 °C
O=C1CC(c2cccc(-c3cccnc3)c2)=Nc2ccccc2N1 [Example 34, 4-(3-Pyridin-3-yl-phenyl)-1,3-dihydro-benzo[b][1,4]diazepin-2-one] | 210 to 211 °C
COc1ccc2c(c1)NC(=O)CC(c1cccc(-c3ccncc3)c1)=N2 [Example 38, 8-Methoxy-4-(3-pyridin-4-yl-phenyl)-1,3-dihydro-benzo[b][1,4]diazepin-2-one] | 193 to 196 °C
CN(C)c1cc2c(cc1-c1ccccc1F)NC(=O)CC(c1cccc(-c3ccncc3)c1)=N2 [Example 39, 7-Dimethylamino-8-(2-fluoro-phenyl)-4-(3-pyridin-4-yl-phenyl)-1,3-dihydro-benzo[b][1,4]diazepin-2-one] | 236 to 237 °C
COc1ccc(-c2cccc(C3=Nc4cc(N(C)C)c(C(F)(F)F)cc4NC(=O)C3)c2)nn1 [Example 40, 7-Dimethylamino-4-[3-(6-methoxy-pyridazin-3-yl)-phenyl]-8-trifluoromethyl-1,3-dihydro-benzo[b][1,4]diazepin-2-one] | 224 °C
O=C1CC(c2cccc(-c3ccccn3)c2)=Nc2cc(OCC(F)(F)F)c(C(F)(F)F)cc2N1 [Example 44, 4-(3-Pyridin-2-yl-phenyl)-7-(2,2,2-trifluoro-ethoxy)-8-trifluoromethyl-1,3-dihydro-benzo[b][1,4]diazepin-2-one] | 214 °C
Cc1cc2c(cc1Cl)NC(=O)CC(c1cccc(-c3ccccn3)c1)=N2 [Example 45, 8-Chloro-7-methyl-4-(3-pyridin-2-yl-phenyl)-1,3-dihydro-benzo[b][1,4]diazepin-2-one] | 222 °C (dec.)
COc1ccc(-c2cccc(C3=Nc4ccc(C(F)(F)F)cc4NC(=O)C3)c2)cn1 [Example 50, 4-[3-(6-Methoxy-pyridin-3-yl)-phenyl]-8-trifluoromethyl-1,3-dihydro-benzo[b][1,4]diazepin-2-one] | 210 to 215 °C
COc1ccc(-c2cccc(C3=Nc4ccc(Cl)cc4NC(=O)C3)c2)cn1 [Example 51, 8-Chloro-4-[3-(6-methoxy-pyridin-3-yl)-phenyl]-1,3-dihydro-benzo[b][1,4]diazepin-2-one] | 200 to 205 °C
O=C1CC(c2cccc(-c3ccccn3)c2)=Nc2cc(F)c(Cl)cc2N1 [Example 52, 8-Chloro-7-fluoro-4-(3-pyridin-2-yl-phenyl)-1,3-dihydro-benzo[b][1,4]diazepin-2-one] | 197 to 198 °C
COc1ccc2c(c1)N=C(c1cccc(-c3cccnc3)c1)CC(=O)N2 [Example 55, 7-Methoxy-4-(3-pyridin-3-yl-phenyl)-1,3-dihydro-benzo[b][1,4]diazepin-2-one] | 219 °C (dec.)
CCOc1ccc2c(c1)N=C(c1cccc(-c3ccnc(C)c3)c1)CC(=O)N2 [Example 59, 7-Ethoxy-4-[3-(2-methyl-pyridin-4-yl)-phenyl]-1,3-dihydro-benzo[b][1,4]diazepin-2-one] | 163 °C
CCOc1ccc2c(c1)N=C(c1cccc(-c3ccc(C)nc3)c1)CC(=O)N2 [Example 60, 7-Ethoxy-4-[3-(6-methyl-pyridin-3-yl)-phenyl]-1,3-dihydro-benzo[b][1,4]diazepin-2-one] | 173 °C
Cc1cc2c(cc1C)NC(=O)CC(c1cccc(-c3ccncc3)c1)=N2 [Example 69, 7,8-Dimethyl-4-(3-pyridin-4-yl-phenyl)-1,3-dihydro-benzo[b][1,4]diazepin-2-one] | 231 °C
Cc1cc(-c2cccc(C3=Nc4ccccc4NC(=O)C3)c2)ccn1 [Example 71, 4-[3-(2-Methyl-pyridin-4-yl)-phenyl]-1,3-dihydro-benzo[b][1,4]diazepin-2-one] | 192 °C
Cc1cc(-c2cccc(C3=Nc4ccc(Cl)cc4NC(=O)C3)c2)ccn1 [Example 74, 8-Chloro-4-[3-(2-methyl-pyridin-4-yl)-phenyl]-1,3-dihydro-benzo[b][1,4]diazepin-2-one] | 215 °C
Cc1cc(-c2cccc(C3=Nc4cc(NCC(C)C)c(Cl)cc4NC(=O)C3)c2)ccn1 [Example 79, 8-Chloro-7-isobutylamino-4-[3-(2-methyl-pyridin-4-yl)-phenyl]-1,3-dihydro-benzo[b][1,4]diazepin-2-one] | 220 °C
O=C1CC(c2cccc(-c3cnccn3)c2)=Nc2ccc(-c3ccccc3F)cc2N1 [Example 92, 8-(2-Fluoro-phenyl)-4-(3-pyrazin-2-yl-phenyl)-1,3-dihydro-benzo[b][1,4]diazepin-2-one] | 241 °C

Other lines, results leading:

melting point | Compound
225 °C (dec.) | COc1cc2c(cc1C(F)(F)F)NC(=O)CC(c1cccc(-c3ccncc3)c1)=N2 [Example 35, 7-Methoxy-4-(3-pyridin-4-yl-phenyl)-8-trifluoromethyl-1,3-dihydro-benzo[b][1,4]diazepin-2-one]
229 °C | CCOc1cc2c(cc1C(F)(F)F)NC(=O)CC(c1cccc(-c3ccccn3)c1)=N2 [Example 43, 7-Ethoxy-4-(3-pyridin-2-yl-phenyl)-8-trifluoromethyl-1,3-dihydro-benzo[b][1,4]diazepin-2-one]
251 to 253 °C | Cc1cc2c(cc1C(F)(F)F)NC(=O)CC(c1cccc(-c3ccccn3)c1)=N2 [Example 46, 7-Methyl-4-(3-pyridin-2-yl-phenyl)-8-trifluoromethyl-1,3-dihydro-benzo[b][1,4]diazepin-2-one]
223 °C | Cc1cc2c(cc1C(F)(F)F)NC(=O)CC(c1cccc(-c3ccnnc3)c1)=N2 [Example 49, 7-Methyl-4-(3-pyridazin-4-yl-phenyl)-8-trifluoromethyl-1,3-dihydro-benzo[b][1,4]diazepin-2-one]
196 to 198 °C | CN(c1cc2c(cc1C(F)(F)F)NC(=O)CC(c1cccc(-c3cccnc3)c1)=N2)C1CC1 [Example 62, 7-(Cyclopropyl-methyl-amino)-4-(3-pyridin-3-yl-phenyl)-8-trifluoromethyl-1,3-dihydro-benzo[b][1,4]diazepin-2-one]
217 °C | Cc1cc2c(cc1C(F)(F)F)N=C(c1cccc(-c3ccncc3)c1)CC(=O)N2 [Example 64, 8-Methyl-4-(3-pyridin-4-yl-phenyl)-7-trifluoromethyl-1,3-dihydro-benzo[b][1,4]diazepin-2-one]
236 °C | Cc1cc2c(cc1Cl)N=C(c1cccc(-c3ccncc3)c1)CC(=O)N2 [Example 66, 7-Chloro-8-methyl-4-(3-pyridin-4-yl-phenyl)-1,3-dihydro-benzo[b][1,4]diazepin-2-one]
192 °C | CCCN(C)c1cc2c(cc1C(F)(F)F)NC(=O)CC(c1cccc(-c3ccncc3)c1)=N2 [Example 81, 7-(Methyl-propyl-amino)-4-(3-pyridin-4-yl-phenyl)-8-trifluoromethyl-1,3-dihydro-benzo[b][1,4]diazepin-2-one]
221 °C | Cc1cc(-c2cccc(C3=Nc4cc(Cl)c(C(F)(F)F)cc4NC(=O)C3)c2)ccn1 [Example 82, 7-Chloro-4-[3-(2-methyl-pyridin-4-yl)-phenyl]-8-trifluoromethyl-1,3-dihydro benzo[b][1,4]diazepin-2-one]
200 °C | CN(C)c1cc2c(cc1C(F)(F)F)NC(=O)CC(c1cccc(-c3cncnc3)c1)=N2 [Example 85, 7-Dimethylamino-4-(3-pyrimidin-5-yl-phenyl)-8-trifluoromethyl-1,3-dihydro-benzo[b][1,4]diazepin-2-one]
232 °C | Cc1cc2c(cc1Cl)NC(=O)CC(c1cccc(-c3cnccn3)c1)=N2 [Example 86, 8-Chloro-7-methyl-4-(3-pyrazin-2-yl-phenyl)-1,3-dihydro-benzo[b][1,4]diazepin-2-one]
268 °C | O=C1CC(c2cccc(-c3cnccn3)c2)=Nc2cc(Cl)c(Cl)cc2N1 [Example 88, 7,8-Dichloro-4-(3-pyrazin-2-yl-phenyl)-1,3-dihydro-benzo[b][1,4]diazepin-2-one]
223 °C | O=C1CC(c2cccc(-c3cnccn3)c2)=Nc2ccc(C(F)(F)F)cc2N1 [Example 89, 4-(3-Pyrazin-2-yl-phenyl)-8-trifluoromethyl-1,3-dihydro-benzo[b][1,4]diazepin-2-one]
204 °C | CN(C)c1cc2c(cc1C(F)(F)F)NC(=O)CC(c1cccc(-c3cnccn3)c1)=N2 [Example 90, 7-Dimethylamino-4-(3-pyrazin-2-yl-phenyl)-8-trifluoromethyl-1,3-dihydro-benzo[b][1,4]diazepin-2-one]
235 °C | O=C1CC(c2cccc(-c3cnccn3)c2)=Nc2cc(Cl)c(C(F)(F)F)cc2N1 [Example 91, 7-Chloro-4-(3-pyrazin-2-yl-phenyl)-8-trifluoromethyl-1,3-dihydro-benzo[b][1,4]diazepin-2-one]
216 °C | Cc1cc2c(cc1C(F)(F)F)N=C(c1cccc(-c3cnccn3)c1)CC(=O)N2 [Example 93, 8-Methyl-4-(3-pyrazin-2-yl-phenyl)-7-trifluoromethyl-1,3-dihydro-benzo[b][1,4]diazepin-2-one]
234 °C | O=C1CC(c2cccc(-c3cncnc3)c2)=Nc2ccc(Cl)cc2N1 [Example 94, 8-Chloro-4-(3-pyrimidin-5-yl-phenyl)-1,3-dihydro-benzo[b][1,4]diazepin-2-one]
222 °C | O=C1CC(c2cccc(-c3cncnc3)c2)=Nc2cc(Cl)c(C(F)(F)F)cc2N1 [Example 95, 7-Chloro-4-(3-pyrimidin-5-yl-phenyl)-8-trifluoromethyl-1,3-dihydro-benzo[b][1,4]diazepin-2-one]
241 °C | CC(C)CNc1cc2c(cc1Cl)NC(=O)CC(c1cccc(-c3cncnc3)c1)=N2 [Example 96, 8-Chloro-7-isobutylamino-4-(3-pyrimidin-5-yl-phenyl)-1,3-dihydro-benzo[b][1,4]diazepin-2-one]
197 °C | CCCN(C)c1cc2c(cc1C(F)(F)F)NC(=O)CC(c1cccc(-c3cncnc3)c1)=N2 [Example 99, 7-(Methyl-propyl-amino)-4-(3-pyrimidin-5-yl-phenyl)-8-trifluoromethyl-1,3-dihydro-benzo[b][1,4]diazepin-2-one]

Reference: patent US6949542B2, “Dihydro-benzo[b][1,4]diazepin-2-one derivatives” (Hoffman-La Roche Inc., priority 2002, dated 2005)
